From ChEMBL document CHEMBL1201862, “PubChem BioAssay data set” (2004)
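These data come from cells grown in 96-well plates and exposed to compound for 48 hours at five concentrations. Here, GI50 denotes the concentration required for 50% inhibition of growth.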 Calls of active or inactive are those of the source. Rule as the data show it: active = GI50 up to about 1.1 µM and inactive = higher.

Legend:
Assay in all cases: NCI tumour cell line growth inhibition, 48 h
[1] = test system: IGROV-1
[2] = test system: HCC 2998
[3] = test system: SK-OV-3
[4] = test system: A498
[5] = test system: SK-MEL-5
[6] = test system: MCF7
[7] = test system: T47D
[8] = test system: SR
[9] = test system: HOP-62
[10] = test system: RPMI-8226
[11] = test system: NCI-H226
[12] = test system: KM12
[13] = test system: MOLT-4
[14] = test system: K562
[15] = test system: LOX IMVI
[16] = test system: Malme-3M
[17] = test system: SNB-75
[18] = test system: SNB-19
[19] = test system: A549
[20] = test system: SF-539
[21] = test system: UACC-257
[22] = test system: NCI-H460
[23] = test system: HCT-15
[24] = test system: OVCAR-8
[25] = test system: RXF 393
[26] = test system: EKVX
[27] = test system: UACC-62
[28] = test system: U-251
[29] = test system: DU-145
[30] = test system: COLO 205
[31] = test system: SK-MEL-28
[32] = test system: OVCAR-4
[33] = test system: NCI/ADR-RES
[34] = test system: SF-295
[35] = test system: CCRF-CEM
[36] = test system: OVCAR-5
[37] = test system: UO-31
[38] = test system: MDA-MB-231
[39] = test system: SN12C
[40] = test system: TK-10
[41] = test system: M14
[42] = test system: PC-3
[43] = test system: SW-620
[44] = test system: 786-0
[45] = test system: BT-549
[46] = test system: HCT-116
[47] = test system: NCI-H23
[48] = test system: SF-268
[49] = test system: CAKI-1
[50] = test system: SK-MEL-2
[51] = test system: MDA-MB-435
[52] = test system: NCI-H522
[53] = test system: ACHN
[54] = test system: HOP-92
[55] = test system: OVCAR-3

In the case of O=C(/C=C1\Nc2ccccc2N\C1=C\C(=O)c1ccc(Cl)cc1)c1ccccc1, the GI50 [1] is reported as > 100 µM (inactive), the GI50 [2] is reported as 74.8 µM (inactive) and the GI50 [3] is reported as 70 µM (inactive). For the same molecule, the GI50 [4] was 73.6 µM (inactive), the GI50 [5] was > 100 µM (inactive) and the GI50 [6] was 38.7 µM (inactive). The GI50 [7] was 16 µM (inactive), the GI50 [8] was 20.6 µM (inactive) and the GI50 [9] was 26.1 µM (inactive). The GI50 [10] was 39.4 µM (inactive), the GI50 [11] was > 100 µM (inactive) and the GI50 [12] was 64.4 µM (inactive). For the same molecule, the GI50 [13] was 7.87 µM (inactive), the GI50 [14] was 37.5 µM (inactive) and the GI50 [15] was 33.3 µM (inactive). For the same molecule, the GI50 [16] was > 100 µM (inactive), the GI50 [17] was 21.3 µM (inactive) and the GI50 [18] was 94.4 µM (inactive). The GI50 [19] was 53 µM (inactive), the GI50 [20] was 35.1 µM (inactive) and the GI50 [21] was 53.8 µM (inactive). For the same molecule, the GI50 [22] was 19.7 µM (inactive), the GI50 [23] was 52.7 µM and the GI50 [24] was 23.9 µM (inactive). For the same molecule, the GI50 [25] was 70.1 µM (inactive), the GI50 [26] was > 100 µM (inactive) and the GI50 [27] was > 100 µM (inactive). The GI50 [28] was 23.4 µM (inactive), the GI50 [29] was > 100 µM (inactive) and the GI50 [30] was > 100 µM (inactive). For the same molecule, the GI50 [31] was 42.4 µM (inactive), the GI50 [32] was 31.3 µM (inactive) and the GI50 [33] was > 100 µM (inactive). The GI50 [34] was 40.3 µM (inactive), the GI50 [35] was 10.4 µM (inactive) and the GI50 [36] was 64 µM (inactive). The GI50 [37] was 21.4 µM (inactive), the GI50 [38] was > 100 µM (inactive) and the GI50 [39] was 47.2 µM (inactive). For the same molecule, the GI50 [40] was > 100 µM (inactive), the GI50 [41] was 18.3 µM (inactive) and the GI50 [42] was > 100 µM (inactive). The GI50 [43] was > 100 µM (inactive), the GI50 [44] was 26 µM (inactive) and the GI50 [45] was 34.5 µM (inactive). The GI50 [46] was 38.3 µM (inactive), the GI50 [47] was 75 µM (inactive) and the GI50 [48] was > 100 µM (inactive). For the same molecule, the GI50 [49] was 27.8 µM (inactive), the GI50 [50] was > 100 µM (inactive) and the GI50 [51] was > 100 µM (inactive). The GI50 [52] was > 100 µM (inactive) and the GI50 [53] was 31.6 µM (inactive).
For CN(C)C1(N(C)C)Oc2c(c(=O)n(C)c(=O)n2C)C(c2ccccc2)C1(F)F (stereo unspecified), the GI50 [2] was > 100 µM (inactive), the GI50 [3] was > 100 µM (inactive) and the GI50 [4] was > 100 µM (inactive). For the same molecule, the GI50 [5] was > 100 µM (inactive), the GI50 [6] was > 100 µM (inactive) and the GI50 [7] was > 100 µM (inactive). The GI50 [9] was > 100 µM (inactive), the GI50 [10] was > 100 µM (inactive) and the GI50 [11] was > 100 µM (inactive). The GI50 [12] was > 100 µM (inactive), the GI50 [13] was > 100 µM (inactive) and the GI50 [14] was > 100 µM (inactive). The GI50 [54] was > 100 µM (inactive), the GI50 [55] was > 100 µM (inactive) and the GI50 [15] was > 100 µM (inactive). For the same molecule, the GI50 [17] was > 100 µM (inactive), the GI50 [18] was > 100 µM (inactive) and the GI50 [19] was > 100 µM (inactive). For the same molecule, the GI50 [21] was > 100 µM (inactive), the GI50 [22] was > 100 µM (inactive) and the GI50 [23] was > 100 µM. The GI50 [25] was > 100 µM (inactive), the GI50 [26] was > 100 µM (inactive) and the GI50 [27] was > 100 µM (inactive). For the same molecule, the GI50 [28] was > 100 µM (inactive), the GI50 [29] was > 100 µM (inactive) and the GI50 [30] was > 100 µM (inactive). For the same molecule, the GI50 [31] was > 100 µM (inactive), the GI50 [32] was > 100 µM (inactive) and the GI50 [33] was > 100 µM (inactive). The GI50 [34] was > 100 µM (inactive), the GI50 [35] was > 100 µM (inactive) and the GI50 [36] was > 100 µM (inactive). For the same molecule, the GI50 [37] was > 100 µM (inactive), the GI50 [38] was > 100 µM (inactive) and the GI50 [40] was > 100 µM (inactive). The GI50 [41] was > 100 µM (inactive), the GI50 [42] was > 100 µM (inactive) and the GI50 [43] was > 100 µM (inactive). The GI50 [44] was > 100 µM (inactive), the GI50 [45] was > 100 µM (inactive) and the GI50 [46] was > 100 µM (inactive). The GI50 [47] was > 100 µM (inactive), the GI50 [48] was > 100 µM (inactive) and the GI50 [49] was > 100 µM (inactive). The GI50 [50] was > 100 µM (inactive), the GI50 [51] was > 100 µM (inactive) and the GI50 [53] was > 100 µM (inactive).
